Source: US8093378B2, “Crystallization method for intermediates of carbapenem antibiotics” (Kaneka Corporation, priority 2006, dated 2012)

Tests used:
[1] = Storage stability of the crystals at 60° C. (remaining activity by HPLC); format: physicochemical
Procedure: About 500 mg of Compound (1) in a crystalline form obtained in each of Example 1 and Comparative example 1 was weighed out in a glass bottle, and the bottle was tightly sealed. Then, the bottle was left in a constant-temperature room at 60° C. for 8 days.

[2] = Bulk density of crystals passing a 500 μm sieve (tapped); format: physicochemical; conditions: crystals with particle size 500 μm or less; weight of crystals/volume of crystals after tapping
Procedure: Arbitrarily, 3.0 g of Compound (1) in a crystalline form obtained in each of Example 1, Comparative example 1, Example 2 and Comparative example 2 was taken out, and was passed through a test sieve with a diameter of 8 cm and a mesh size of 500 μm in accordance with the Japanese Industrial Standard (JIS Z 8801), and the bulk density of the crystals passing through the sieve was measured. […] The bulk density was calculated by using “weight of crystals”/“volume of crystals” as a calculation method.

[3] = Particle size distribution of crystals by sieving (JIS Z 8801 / JIS Z 8901); format: physicochemical; conditions: for ratio of weight of crystals, particle size <177 μm: mesh size <177 μm; for ratio of weight of crystals, particle size <350, ≧177 μm: mesh size <350, ≧177 μm; for ratio of weight of crystals, particle size ≧350 μm: mesh size ≧350 μm
Excerpt: Arbitrarily, 3.0 g of Compound (1) in a crystalline form obtained in each of Example 2, Comparative example 2, Example 3 and Comparative example 3 was taken out. Test sieves with a mesh size in accordance with the Japanese Industrial Standard (JIS Z 8801), having a mesh size of 500 μm, 420 μm, 350 μm, 250 μm, 177 μm, 149 μm, 125 μm, 74 μm or 44 μm and an inner diameter of 8 cm, were used, and were shaken by hand in accordance with the measurement procedure of the standard sieving method specified in JIS Z 8901. The results obtained by comparing the particle size distributions between the “crystal of Example 2” and the “crystal of Comparative example 2”, and between the “crystal of Example 3” and the “crystal of Comparative example 3” are shown in Table 3.

[4] = stored at 40° C. for 20 days, crystalline form; cited from earlier work
[5] = Day 1 (set as 100%), crystal in sealed glass bottle at 60° C.
[6] = Day 4, crystal in sealed glass bottle at 60° C.
[7] = Day 6, crystal in sealed glass bottle at 60° C.
[8] = Day 8, crystal in sealed glass bottle at 60° C.

Structure (SMILES) | remaining activity [1, 5] | remaining activity [1, 6] | remaining activity [1, 7] | remaining activity [1, 8] | Bulk Density [2] | ratio of weight of crystals, particle size <177 μm [3] | ratio of weight of crystals, particle size <350, ≧177 μm [3] | ratio of weight of crystals, particle size ≧350 μm [3] | decomposition ([1]; storage at 60° C., 8 days, crystal obtained by the same method as Patent document 4) | decomposition on storage [4]
C[C@@H](O)[C@H]1C(=O)N2C(C(=O)OCc3ccc([N+](=O)[O-])cc3)=C(OP(=O)(Oc3ccccc3)Oc3ccccc3)[C@H](C)[C@H]12 [Comparative Example 1, p-nitrobenzyl (4R,5R,6S)-1-aza-3-diphenyloxyphosphoryloxy-6-[(1R)-1-hydroxyethyl]-4-methyl-7-oxobicyclo[3.2.0]hept-2-en-2-carboxylate, reference compound] | 100% | 96% | 87% | 80% | 0.37 | – | – | – | – | –
C[C@@H](O)[C@H]1C(=O)N2C(C(=O)OCc3ccc([N+](=O)[O-])cc3)=C(OP(=O)(Oc3ccccc3)Oc3ccccc3)[C@H](C)[C@H]12 [Comparative example 2, p-nitrobenzyl (4R,5R,6S)-1-aza-3-diphenyloxyphosphoryloxy-6-[(1R)-1-hydroxyethyl]-4-methyl-7-oxobicyclo[3.2.0]hept-2-en-2-carboxylate, reference compound] | – | – | – | – | 0.36 | 34% | 47% | 19% | – | –
C[C@@H](O)[C@H]1C(=O)N2C(C(=O)OCc3ccc([N+](=O)[O-])cc3)=C(OP(=O)(Oc3ccccc3)Oc3ccccc3)[C@H](C)[C@H]12 [Comparative example 3, p-nitrobenzyl (4R,5R,6S)-1-aza-3-diphenyloxyphosphoryloxy-6-[(1R)-1-hydroxyethyl]-4-methyl-7-oxobicyclo[3.2.0]hept-2-en-2-carboxylate, reference compound] | – | – | – | – | – | 25% | 45% | 30% | – | –
C[C@@H](O)[C@H]1C(=O)N2C(C(=O)OCc3ccc([N+](=O)[O-])cc3)=C(OP(=O)(Oc3ccccc3)Oc3ccccc3)[C@H](C)[C@H]12 [Compound (1), p-nitrobenzyl (4R,5R,6S)-1-aza-3-diphenyloxyphosphoryloxy-6-[(1R)-1-hydroxyethyl]-4-methyl-7-oxobicyclo[3.2.0]hept-2-en-2-carboxylate] | – | – | – | – | – | – | – | – | 20% | not decomposed
C[C@@H](O)[C@H]1C(=O)N2C(C(=O)OCc3ccc([N+](=O)[O-])cc3)=C(OP(=O)(Oc3ccccc3)Oc3ccccc3)[C@H](C)[C@H]12 [Example 1, p-nitrobenzyl (4R,5R,6S)-1-aza-3-diphenyloxyphosphoryloxy-6-[(1R)-1-hydroxyethyl]-4-methyl-7-oxobicyclo[3.2.0]hept-2-en-2-carboxylate] | 100% | 97% | 92% | 88% | 0.43 | – | – | – | – | –
C[C@@H](O)[C@H]1C(=O)N2C(C(=O)OCc3ccc([N+](=O)[O-])cc3)=C(OP(=O)(Oc3ccccc3)Oc3ccccc3)[C@H](C)[C@H]12 [Example 2, p-nitrobenzyl (4R,5R,6S)-1-aza-3-diphenyloxyphosphoryloxy-6-[(1R)-1-hydroxyethyl]-4-methyl-7-oxobicyclo[3.2.0]hept-2-en-2-carboxylate] | – | – | – | – | 0.40 | 10% | 41% | 49% | – | –
C[C@@H](O)[C@H]1C(=O)N2C(C(=O)OCc3ccc([N+](=O)[O-])cc3)=C(OP(=O)(Oc3ccccc3)Oc3ccccc3)[C@H](C)[C@H]12 [Example 3, p-nitrobenzyl (4R,5R,6S)-1-aza-3-diphenyloxyphosphoryloxy-6-[(1R)-1-hydroxyethyl]-4-methyl-7-oxobicyclo[3.2.0]hept-2-en-2-carboxylate] | – | – | – | – | – | 18% | 36% | 46% | – | –
